Experimental data: PubChem BioAssay (NCI)
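The compound was tested at five concentrations on cells cultured in 96-well plates, with a 48-hour exposure period. GI50 marks 50% less growth. TGI is the concentration that stops growth completely.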

Columns and labels:
Experiment in all cases: DTP human tumour cell line panel, 48 h; in the data active = GI50 below about 0.43 µM; inactive = the rest
SF-268 CNS = system: SF-268 CNS
HCT-15 colon = system: HCT-15 colon
BT-549 breast = system: BT-549 breast
PC-3 prostate = system: PC-3 prostate
OVCAR-5 ovarian = system: OVCAR-5 ovarian
KM12 colon = system: KM12 colon
M14 melanoma = system: M14 melanoma
OVCAR-8 ovarian = system: OVCAR-8 ovarian
NCI/ADR-RES ovarian = system: NCI/ADR-RES ovarian
MDA-MB-435 = system: MDA-MB-435
OVCAR-3 ovarian = system: OVCAR-3 ovarian
SK-MEL-28 melanoma = system: SK-MEL-28 melanoma
T-47D breast = system: T-47D breast
LOX IMVI melanoma = system: LOX IMVI melanoma
UACC-257 melanoma = system: UACC-257 melanoma
NCI-H23 lung = system: NCI-H23 lung
CCRF-CEM leukemia = system: CCRF-CEM leukemia
A549 NSCLC = system: A549 NSCLC
HOP-92 NSCLC = system: HOP-92 NSCLC
SNB-19 CNS = system: SNB-19 CNS
786-0 renal = system: 786-0 renal
SN12C renal = system: SN12C renal
SW-620 colon = system: SW-620 colon
NCI-H522 lung = system: NCI-H522 lung
K-562 leukemia = system: K-562 leukemia
U251 CNS = system: U251 CNS
SK-MEL-2 melanoma = system: SK-MEL-2 melanoma
MOLT-4 leukemia = system: MOLT-4 leukemia
CAKI-1 renal = system: CAKI-1 renal
IGROV1 ovarian = system: IGROV1 ovarian
EKVX NSCLC = system: EKVX NSCLC
NCI-H460 lung = system: NCI-H460 lung
NCI-H226 lung = system: NCI-H226 lung
HT29 colon = system: HT29 colon
ACHN renal = system: ACHN renal
SK-MEL-5 melanoma = system: SK-MEL-5 melanoma
HS 578T breast = system: HS 578T breast
UO-31 renal = system: UO-31 renal
MCF7 breast = system: MCF7 breast
TK-10 renal = system: TK-10 renal
SF-295 CNS = system: SF-295 CNS
HL-60(TB) leukemia = system: HL-60(TB) leukemia
UACC-62 melanoma = system: UACC-62 melanoma
HOP-62 NSCLC = system: HOP-62 NSCLC
HCT-116 colon = system: HCT-116 colon
RXF 393 renal = system: RXF 393 renal
HCC-2998 colon = system: HCC-2998 colon
COLO 205 colon = system: COLO 205 colon
MDA-MB-231 breast = system: MDA-MB-231 breast
SF-539 CNS = system: SF-539 CNS
MALME-3M melanoma = system: MALME-3M melanoma
A498 renal = system: A498 renal
SNB-75 CNS = system: SNB-75 CNS
SR leukemia = system: SR leukemia
DU-145 prostate = system: DU-145 prostate
OVCAR-4 ovarian = system: OVCAR-4 ovarian
RPMI-8226 leukemia = system: RPMI-8226 leukemia
SK-OV-3 ovarian = system: SK-OV-3 ovarian

COC(=O)C1OC(O[C@H]2CCC3(C)C(CCC4(C)C3CC=C3C5CC(C)(C)CCC5(C(=O)O)CC[C@]34C)C2(C)C)C(O)C(OC2OC(CO)C(O)C(O)C2O)C1O (some centres undefined)
27.6 µM: TGI (OVCAR-8 ovarian)
13.1 µM: TGI (CCRF-CEM leukemia)
13.4 µM: TGI (MOLT-4 leukemia)
> 33.3 µM: TGI (MDA-MB-435) | TGI (OVCAR-3 ovarian) | TGI (SK-MEL-2 melanoma) | TGI (CAKI-1 renal) | TGI (IGROV1 ovarian) | TGI (NCI-H460 lung) | TGI (HT29 colon) | TGI (UO-31 renal) | TGI (SF-295 CNS) | TGI (RXF 393 renal)
24.1 µM: TGI (SK-MEL-28 melanoma)
10.9 µM: TGI (U251 CNS)
18.2 µM: TGI (HL-60(TB) leukemia)
11.5 µM: TGI (M14 melanoma) | TGI (HCT-116 colon)
inactive: GI50 (SF-268 CNS) 7.56 µM | GI50 (HCT-15 colon) 6.57 µM | GI50 (BT-549 breast) 6.93 µM | GI50 (PC-3 prostate) 6.43 µM | GI50 (OVCAR-5 ovarian) 7.31 µM | GI50 (KM12 colon) 8.83 µM | GI50 (M14 melanoma) 6.22 µM | GI50 (OVCAR-8 ovarian) 9.96 µM | GI50 (NCI/ADR-RES ovarian) 7.24 µM | GI50 (MDA-MB-435) 13.3 µM | GI50 (OVCAR-3 ovarian) 13.9 µM | GI50 (SK-MEL-28 melanoma) 10.2 µM | GI50 (T-47D breast) 8.16 µM | GI50 (LOX IMVI melanoma) 6.27 µM | GI50 (UACC-257 melanoma) 6.89 µM | GI50 (NCI-H23 lung) 6.46 µM | GI50 (CCRF-CEM leukemia) 5.79 µM | GI50 (A549 NSCLC) 7.22 µM | GI50 (HOP-92 NSCLC) 7.12 µM | GI50 (SNB-19 CNS) 6.82 µM | GI50 (786-0 renal) 6.36 µM | GI50 (SN12C renal) 6.34 µM | GI50 (SW-620 colon) 7.28 µM | GI50 (NCI-H522 lung) 10.5 µM | GI50 (K-562 leukemia) 8.17 µM | GI50 (U251 CNS) 6.08 µM | GI50 (SK-MEL-2 melanoma) 11.9 µM | GI50 (MOLT-4 leukemia) 2.17 µM | GI50 (CAKI-1 renal) 12.2 µM | GI50 (IGROV1 ovarian) 20.1 µM | GI50 (EKVX NSCLC) 6.59 µM | GI50 (NCI-H460 lung) 11.5 µM | GI50 (NCI-H226 lung) 6.18 µM | GI50 (HT29 colon) 12.4 µM | GI50 (ACHN renal) 5.99 µM | GI50 (SK-MEL-5 melanoma) 6.14 µM | GI50 (HS 578T breast) 8.77 µM | GI50 (UO-31 renal) > 33.3 µM | GI50 (MCF7 breast) 9.92 µM | GI50 (TK-10 renal) 7.22 µM | GI50 (SF-295 CNS) 11.8 µM | GI50 (HL-60(TB) leukemia) 6.92 µM | GI50 (UACC-62 melanoma) 6.23 µM | GI50 (HOP-62 NSCLC) 6.21 µM | GI50 (HCT-116 colon) 6.39 µM | GI50 (RXF 393 renal) 11.3 µM | GI50 (HCC-2998 colon) 7.14 µM | GI50 (COLO 205 colon) 8.64 µM | GI50 (MDA-MB-231 breast) 7.28 µM
15 µM: TGI (BT-549 breast)
26.6 µM: TGI (K-562 leukemia)
14.5 µM: TGI (HOP-92 NSCLC)
12.2 µM: TGI (NCI-H226 lung)
12.4 µM: TGI (HCC-2998 colon)
11.7 µM: TGI (LOX IMVI melanoma) | TGI (UACC-62 melanoma)
11.6 µM: TGI (786-0 renal) | TGI (HOP-62 NSCLC)
13.5 µM: TGI (OVCAR-5 ovarian) | TGI (NCI/ADR-RES ovarian) | TGI (MDA-MB-231 breast)
11.8 µM: TGI (PC-3 prostate)
10.7 µM: TGI (ACHN renal)
21.6 µM: TGI (HS 578T breast)
13.2 µM: TGI (HCT-15 colon)
25.3 µM: TGI (COLO 205 colon)
11.9 µM: TGI (NCI-H23 lung)
15.5 µM: TGI (SNB-19 CNS)
29 µM: TGI (NCI-H522 lung)
12.9 µM: TGI (EKVX NSCLC)
17.1 µM: TGI (SF-268 CNS)
28.9 µM: TGI (KM12 colon)
16.7 µM: TGI (SW-620 colon)
26.4 µM: TGI (MCF7 breast)
14.2 µM: TGI (TK-10 renal)
19.2 µM: TGI (A549 NSCLC)
16.1 µM: TGI (UACC-257 melanoma)
17.2 µM: TGI (T-47D breast)
11.4 µM: TGI (SN12C renal) | TGI (SK-MEL-5 melanoma)

COc1c(C2CC(=O)Nc3c2cnn3Cc2ccco2)cc2c(c1OC)OCO2 (centres undefined)
> 28.4 µM: TGI (HCC-2998 colon)
inactive: GI50 (SF-539 CNS) 0.434 µM | GI50 (SF-268 CNS) 1.58 µM | GI50 (HCT-15 colon) 0.431 µM | GI50 (BT-549 breast) 1.1 µM | GI50 (PC-3 prostate) 0.559 µM | GI50 (OVCAR-5 ovarian) 4.7 µM | GI50 (MALME-3M melanoma) 0.441 µM | GI50 (KM12 colon) 0.439 µM | GI50 (OVCAR-8 ovarian) 0.924 µM | GI50 (NCI/ADR-RES ovarian) 1.08 µM | GI50 (T-47D breast) 0.45 µM | GI50 (LOX IMVI melanoma) 0.864 µM | GI50 (NCI-H23 lung) 0.674 µM | GI50 (CCRF-CEM leukemia) 0.597 µM | GI50 (A549 NSCLC) 0.61 µM | GI50 (SNB-19 CNS) > 100 µM | GI50 (786-0 renal) 0.917 µM | GI50 (SN12C renal) 1.94 µM | GI50 (K-562 leukemia) 0.434 µM | GI50 (U251 CNS) 0.499 µM | GI50 (MOLT-4 leukemia) 0.615 µM | GI50 (CAKI-1 renal) 0.517 µM | GI50 (IGROV1 ovarian) 1.73 µM | GI50 (SR leukemia) 0.437 µM | GI50 (NCI-H226 lung) 3.85 µM | GI50 (ACHN renal) 0.833 µM | GI50 (HS 578T breast) 0.49 µM | GI50 (UO-31 renal) 2.65 µM | GI50 (TK-10 renal) 11.3 µM | GI50 (DU-145 prostate) 0.522 µM | GI50 (SF-295 CNS) 0.573 µM | GI50 (HOP-62 NSCLC) 1.79 µM | GI50 (HCT-116 colon) 0.457 µM | GI50 (HCC-2998 colon) 1.1 µM | GI50 (SK-OV-3 ovarian) 0.858 µM | GI50 (MDA-MB-231 breast) 1.67 µM
> 30.5 µM: TGI (SF-295 CNS)
4.36 µM: TGI (SF-539 CNS)
> 100 µM: TGI (SF-268 CNS) | TGI (HCT-15 colon) | TGI (BT-549 breast) | TGI (PC-3 prostate) | TGI (OVCAR-5 ovarian) | TGI (MALME-3M melanoma) | TGI (KM12 colon) | TGI (M14 melanoma) | TGI (OVCAR-8 ovarian) | TGI (NCI/ADR-RES ovarian) | TGI (SK-MEL-28 melanoma) | TGI (T-47D breast) | TGI (LOX IMVI melanoma) | TGI (NCI-H23 lung) | TGI (CCRF-CEM leukemia) | TGI (A549 NSCLC) | TGI (SNB-75 CNS) | TGI (SNB-19 CNS) | TGI (786-0 renal) | TGI (SN12C renal) | TGI (SW-620 colon) | TGI (K-562 leukemia) | TGI (SK-MEL-2 melanoma) | TGI (MOLT-4 leukemia) | TGI (CAKI-1 renal) | TGI (IGROV1 ovarian) | TGI (SR leukemia) | TGI (NCI-H460 lung) | TGI (NCI-H226 lung) | TGI (HT29 colon) | TGI (ACHN renal) | TGI (HS 578T breast) | TGI (UO-31 renal) | TGI (MCF7 breast) | TGI (TK-10 renal) | TGI (UACC-62 melanoma) | TGI (HOP-62 NSCLC) | TGI (HCT-116 colon) | TGI (OVCAR-4 ovarian)
24.6 µM: TGI (DU-145 prostate)
> 26.4 µM: TGI (MDA-MB-231 breast)
> 24.9 µM: TGI (SK-OV-3 ovarian)
3.24 µM: TGI (NCI-H522 lung)
> 25.8 µM: TGI (U251 CNS)
> 56.5 µM: TGI (RPMI-8226 leukemia)
8.38 µM: TGI (SK-MEL-5 melanoma)
0.932 µM: TGI (A498 renal)
1.4 µM: TGI (OVCAR-3 ovarian)
2.86 µM: TGI (COLO 205 colon)
98 µM: TGI (HOP-92 NSCLC)
active: GI50 (M14 melanoma) 0.408 µM | GI50 (A498 renal) 0.21 µM | GI50 (OVCAR-3 ovarian) 0.325 µM | GI50 (HOP-92 NSCLC) 0.424 µM | GI50 (SNB-75 CNS) 0.295 µM | GI50 (SW-620 colon) 0.385 µM | GI50 (NCI-H522 lung) 0.349 µM | GI50 (SK-MEL-2 melanoma) 0.421 µM | GI50 (NCI-H460 lung) 0.401 µM | GI50 (HT29 colon) 0.372 µM | GI50 (SK-MEL-5 melanoma) 0.395 µM | GI50 (MCF7 breast) 0.367 µM | GI50 (HL-60(TB) leukemia) 0.301 µM | GI50 (RXF 393 renal) 0.35 µM | GI50 (RPMI-8226 leukemia) 0.396 µM | GI50 (COLO 205 colon) 0.332 µM
> 19.7 µM: TGI (RXF 393 renal)
